Results on 14 compounds are retold here after US4916149A, “Diuretic and saluretic 4-chloro-3-sulfamoylbenzoic acid hydrazides” (Chinoin Gyogyszer es Vegyeszeti Termekek Gyara Rt., priority 1987, dated 1990).

Structures are written as SMILES. Where “and” joins values, the source holds several entries; their conditions need not be identical. Identical values can stand only once. Like-named read-outs stand apart in the source and are kept apart here.

A short description of series [1]: Saluretic/diuretic screening in rats (method of Lipschitz as modified by Kagawa and Kahn). In kind it is in vivo, male LATI CFY rats. The conditions noted are these: for response vs control in vivo at 5 mg/kg: Rattus norvegicus; for response vs control in vivo at 5 mg/kg / Na/K ratio of the urine discharged: single oral dose (5 mg/kg oral screen dose), 24 hours; for Na/K ratio of the urine discharged: control 3.0. The protocol:
The compounds of the present invention were compared with Dihydrochlorothiazide and Furosemide in rats by administration of a 5 mg/kg oral screen dose.
The screening tests were carried out on male LATI CFY rats having an average body-weight of 240 g. The animals were kept on standard rat food and starved for 16 hours before the experiment but they received water ad libitum. For evaluation of the diuretic effect, the method of Lipschitz as modified by Kagawa and Kahn [Arch. Int. Pharmacodyn. 137, 241 (1962)] was used.
Effect of a single oral dose of the compounds according to the invention on water, sodium and potassium diuresis during 24 hours as percentage of the simultaneously measured control values as well as their effect on the Na/K ratio of the urine discharged

Series [2] is described as follows: Antihypertensive activity in spontaneously hypertensive (SH) rats, systolic blood pressure. In kind it is in vivo, spontaneously hypertensive (SH) male Okamoto rats. The conditions noted are these: single oral dose 5 mg/kg. The protocol: […] A hypotension of 21.1% was induced by the compound of Example 1 by 12 hours after administration.
These investigations were carried but in spontaneously hypertensive (SH) male Okamoto rats. At least one week before starting the experiment, the animals had individually been maintained in cages and received water and semisynthetic rat food ad libitum. In the same time of each day, the blood pressure of each animal was measured and gastric tubing was carried out while immobilizing the animals. Animals with a blood pressure below 170 Hgmm were excluded from the experiment. Based on the daily determined blood pressure values, the animals were divided to experimental groups having a nearly equal average blood pressure and deviation.
At the beginning of the experiment, the animals were given 0.2 ml/100 g of a solution containing the test compound, and 1 ml/100 g of Furosemide solution, respectively. Animal groups treated with physiological saline solution and solvent, respectively were also investigated in each experiment.
Before measuring the blood pressure, the animals were put into a light-insulated sound-proof chamber then immobilized. An inflatable rubber cuff was placed on their tail root (onto the same site in each case) which was connected with a manometer.
The material and diameter of the tail cuff was standardized. The measurement was carried out according to the Riva-Rocci principle. For determining the systolic blood pressure, the palpitation method was used. The heart rate was evaluated by a piezoelektric crystal put onto the rubber ring. The blood pressure measurement of each animal was started by 2 minutes following the immobilization, repeated in every 30 seconds and usually, the values several times repeatedly observed were accepted.
Effect of a single oral dose of the compound of Example 1 or Furosemide, respectively on the systolic blood pressure of SH rats

The nature of series [3]: Glucose tolerance, serum uric acid and cholesterol. In kind it is in vivo.
A short description of series [4]: Saluretic effect in dogs (urine volume, Na and K, 0-7 and 7-24 hours). The note with it: 7 hours' period after administration. In kind it is in vivo, perineotomized female dogs. Here is the method: The compound described in Example 1 was studied also on perineotomized female dogs. […] For adaptation, starting from the 4th week following the operation, the urinary bladder of the animals was evacuated by a catheter or treated with saline via a gastric tube. During the experiment, the dogs were kept on a standard food and they received water ad libitum. On the days of the experiements, the dogs were fasted and received only 20 ml/kg of water. Sodium in an 7.7 mmol/kg and potassium in an amount of 6.02 mmol/kg were introduced with the food.
On the day of the experiment, the bladder of the animals was evacuated and a blood sample was taken from the leg vein, then a solution of the diuretic and solvent to the controls, respectively were administered in a dose of 10 ml/kg via a gastric tube. The animals were placed separately in metabolic cages. After 7 and 24 hours, respectively the bladder of the animals was catheterized and the urine was collected by washing the metabolic cage. After 24 hours following the catheterization, a blood sample was taken again.
In addition to the discharged volume, the Na^+ and K^+ content of the urine as well as the glucose and cholesterol level of the serum were determined.

Where [5] appears, read: read-out: K (potassium) diuresis, percentage of the simultaneously measured control values.
[6] abbreviates: read-out: Na (sodium) diuresis, percentage of the simultaneously measured control values.
[7] abbreviates: read-out: Water diuresis, percentage of the simultaneously measured control values.

With `NS(=O)(=O)c1cc(C(=O)Nn2c(=S)[nH]c3cc(C(=O)O)ccc32)ccc1Cl.O` [Example 1, 1-(4'-chloro-3'-sulfamoylbenzoyl)amino-5-carboxybenzimidazole-2-thione monohydrate], the “discharged urine volume as well as ion diuresis” value in series [1] (5 mg/kg oral, compared with Dihydrochlorothiazide and Furosemide) was “particularly advantageous”. In series [1] (5 mg/kg oral, result in words), the Na/K index entry is given as “highly preferable”. The response vs control in vivo at 5 mg/kg in series [1] (setting [5]) was found to be 122%; in series [1] (setting [6]), 152%; in series [1] (setting [7]), 148%. The “Na/K ratio of the urine discharged” value in series [1] is recorded as 4.6. Besides, in series [2] (6 hours), the “Hypotension 6 hours following treatment, %” value was found to be 14.3%. Moreover, the “Hypotension 6 hours following treatment” value in series [2] (6 hours, before treatment 216 mmHg) was 31 mmHg. For the same compound, the “Hypotension 12 hours following treatment” value in series [2] (12 hours, before treatment 216 mmHg) is reported as 45 mmHg. Also, in series [2] (12 hours, monohydrate, 5 mg/kg), the “Hypotension 12 hours following treatment, %” value is 21.1% and 20.1%. Moreover, the “Hypotension 24 hours following treatment, %” value in series [2] (24 hours) stood at 13.8%. Further, in series [2] (24 hours, before treatment 216 mmHg), the “Hypotension 24 hours following treatment” value was determined as 30 mmHg. Besides, the “deterioration of the glucose tolerance” value in series [3] (even in a high dose (30 mg/kg)) is given as “does not induce any deterioration”. Also, in series [3] (in vivo), the “effect on the cholesterol level of the serum” value is reported as “no significant effect”. The “effect on the uric acid concentration of the serum” value in series [3] (in vivo) is given as “no significant effect”.

Take `NS(=O)(=O)c1cc(C(=O)Nn2c(=O)[nH]c3cc(C(=O)O)ccc32)ccc1Cl` [Example 7, 1-(4'-chloro-3'-sulfamoylbenzoyl)-amino-5-carboxybenzimidazolone]: the figures for the response vs control in vivo at 5 mg/kg in series [1] (setting [5]), in series [1] (setting [6]) and in series [1] (setting [7]) were 110%, 133% and 129%, respectively. The “Na/K ratio of the urine discharged” value in series [1] amounted to 3.7.

As to `CSc1nc2cc(C(=O)O)ccc2n1NC(=O)c1ccc(Cl)c(S(N)(=O)=O)c1` [Example 9, 1-(4'-chloro-3'-sulfamoylbenzoyl)-amino-5-carboxy-2-methylthiobenzimidazole], the figures for the response vs control in vivo at 5 mg/kg in series [1] (setting [5]), in series [1] (setting [6]) and in series [1] (setting [7]) were 95%, 105% and 99%, respectively. Also, the “Na/K ratio of the urine discharged” value in series [1] is 3.4.

With `Cc1nc2cc(C(=O)O)ccc2n1NC(=O)c1ccc(Cl)c(S(N)(=O)=O)c1` [Example 16, 1-(4'-chloro-3'-sulfamoylbenzoyl)amino-5-carboxy-2-methylbenzimidazole], the response vs control in vivo at 5 mg/kg in series [1] (setting [5]) is 109%; in series [1] (setting [6]), 117%; in series [1] (setting [7]), 111%. Moreover, in series [1], the “Na/K ratio of the urine discharged” value is 3.3.

For the compound `NS(=O)(=O)c1cc(C(=O)Nn2cnc3cc(C(=O)O)ccc32)ccc1Cl` [Example 19, 1-(4'-chloro-3'-sulfamoylbenzoyl)amino-5-carboxybenzimidazole], the response vs control in vivo at 5 mg/kg in series [1] (setting [5]) turned out to be 120%; in series [1] (setting [6]), 121%; in series [1] (setting [7]), 117%. Besides, the “Na/K ratio of the urine discharged” value in series [1] is recorded as 3.1.

Consider `NS(=O)(=O)c1cc(C(=O)Nn2cnc3ccccc32)ccc1Cl` [Example 22, 1-(4'-chloro-3'-sulfamoylbenzoyl)-aminobenzimidazole], for which the response vs control in vivo at 5 mg/kg in series [1] (setting [5]) came to 103%; in series [1] (setting [6]), 99%; in series [1] (setting [7]), 107%. Besides, in series [1], the “Na/K ratio of the urine discharged” value is listed as 3.7.

As to `Cc1nc2ccccc2n1NC(=O)c1ccc(Cl)c(S(N)(=O)=O)c1` [Example 23, 1-(4'-chloro-3'-sulfamoylbenzoyl)amino-2-methylbenzimidazole], the figures for the response vs control in vivo at 5 mg/kg in series [1] (setting [5]), in series [1] (setting [6]) and in series [1] (setting [7]) were 102%, 105% and 98%, respectively. Besides, in series [1], the “Na/K ratio of the urine discharged” value came to 4.0.

Consider `NS(=O)(=O)c1ccc2c(c1)[nH]c(=S)n2NC(=O)c1ccc(Cl)c(S(N)(=O)=O)c1` [Example 24, 1-(4'-chloro-3'-sulfamoylbenzoyl)amino-5-sulfamoylbenzimidazole-2-thione], for which the response vs control in vivo at 5 mg/kg in series [1] (setting [5]) was determined as 104%; in series [1] (setting [6]), 104%; in series [1] (setting [7]) it was 108%. The “Na/K ratio of the urine discharged” value in series [1] worked out at 3.9.

`NS(=O)(=O)c1cc(C(=O)Nn2cnc3cc(C(F)(F)F)ccc32)ccc1Cl` [Example 26, 1-(4'-chloro-3'-sulfamoylbenzoyl)amino-5-trifluoromethylbenzimidazole]: the response vs control in vivo at 5 mg/kg in series [1] (setting [5]) came out at 106%; in series [1] (setting [6]), 108%; in series [1] (setting [7]), 107%. The “Na/K ratio of the urine discharged” value in series [1] is listed as 4.0.

In the case of `Cc1nc2cc(C(F)(F)F)ccc2n1NC(=O)c1ccc(Cl)c(S(N)(=O)=O)c1` [Example 27, 1-(4'-chloro-3'-sulfamoylbenzoyl)amino-2-methyl-5-trifluoromethylbenzimidazole], the response vs control in vivo at 5 mg/kg in series [1] (setting [5]) is 85%; in series [1] (setting [6]) it was 94%; in series [1] (setting [7]), 95%. For the same compound, the “Na/K ratio of the urine discharged” value in series [1] came to 4.3.

On to `NS(=O)(=O)c1cc(C(=O)Nn2c(-c3ccccc3)nc3cc(C(F)(F)F)ccc32)ccc1Cl` [Example 29, 1-(4'-chloro-3'-sulfamoylbenzoyl)amino-2-phenyl-5-trifluoromethylbenzimidazole], for which the response vs control in vivo at 5 mg/kg in series [1] (setting [5]) turned out to be 105%; in series [1] (setting [6]), 101%; in series [1] (setting [7]), 97%. In addition, in series [1], the “Na/K ratio of the urine discharged” value was 2.9.

`CSc1nc2cc(C(F)(F)F)ccc2n1NC(=O)c1ccc(Cl)c(S(N)(=O)=O)c1` [Example 30, 1-(4'-chloro-3'-sulfamoylbenzoyl)-amino-2-methylthio-5-trifluoromethylbenzimidazole]: the response vs control in vivo at 5 mg/kg in series [1] (setting [5]) is 108%; in series [1] (setting [6]), 106%; in series [1] (setting [7]), 114%. Also, in series [1], the “Na/K ratio of the urine discharged” value is given as 3.0.

On to `COC(=O)c1ccc2c(c1)nc(C)n2NC(=O)c1ccc(Cl)c(S(N)(=O)=O)c1` [Example 32, 1-(4'-chloro-3'-sulfamoylbenzoyl)amino-5-methoxycarbonyl-2-methylbenzimidazole], for which the response vs control in vivo at 5 mg/kg is 115% in series [1] (setting [5]), 121% in series [1] (setting [6]) and 117% in series [1] (setting [7]). For the same compound, in series [1], the “Na/K ratio of the urine discharged” value turned out to be 3.2.

Turning to `NS(=O)(=O)c1cc2c(cc1Cl)NCNS2(=O)=O` [Hypothiazide, reference compound], the response vs control in vivo at 5 mg/kg in series [1] (setting [5]) was determined as 114%; in series [1] (setting [6]), 129%; in series [1] (setting [7]) it was 124%. Further, the “Na/K ratio of the urine discharged” value in series [1] is 3.5. Moreover, the “diuretic effect in 7 hours' period” value in series [4] was “low”.
